Test results reported in patent US20210188856A1, “CRYSTAL FORM OF HYDROCHLORIDE OF PYRAZOLOHETEROARYL DERIVATIVE AND PREPARATION METHOD” (JIANGSU HENGRUI MEDICINE CO., LTD., priority 2018, published 2021).

Test: Influencing factors stability (heating, light illumination, high humidity; spread and uncovered, 20 days)
Format: physicochemical
Conditions: for Maximum single impurity / Purity / Total impurities: monohydrochloride
Protocol: Example 6: the crystal form I of the dihydrochloride salt of the compound represented by formula (I) (example 1) was spread and uncovered, and the steadily of the sample was evaluated under heating (40° C., 60° C.), light illumination (4500 Lux), and high humidity (RH 75%, RH 90%) with a period of 20 days.
Example 10: the crystal form A (example 7) of the monohydrochloride salt of the compound of formula (I) was spread and uncovered, and the stability of the sample was evaluated under heating (40° C., 60° C.), light illumination (4500 Lux), high humidity (RH 75%, RH 90%) conditions with a period of 20 days.
Example 11: the crystal form B of the monohydrochloride salt of the compound represented by formula (I) (example 8) was spread and uncovered, and the stability of the sample was evaluated under heating (40° C., 60° C.), light illumination (4500 Lux), high humidity (RH 75%, RH 90%) conditions with a period of 20 days.
Example 12: the crystal form C of the monohydrochloride salt of the compound represented by formula (I) (example 9) was spread and uncovered, and the stability of the sample was evaluated under heating (40° C., 60° C.), light illumination (4500 Lux), high humidity (RH 75%, RH 90%) conditions with a period of 20 days.

[1] = light illumination (4500 Lux), 4 days
[2] = light illumination (4500 Lux), 10 days
[3] = light illumination (4500 Lux), 20 days

`CCCCOc1nc(N)c2cnn(Cc3ccc(CN4CCCC4)cc3)c2n1.Cl` [crystal form A, 6-butoxy-1-(4-(pyrrolidin-1-ylmethyl)benzyl)-1H-pyrazolo[3,4-d]pyrimidin-4-amine monohydrochloride] showed a Maximum single impurity (0 day) of 0.09%, a Purity (0 day) of 99.74% and a Total impurities (0 day) of 0.26%. The Maximum single impurity (40° C., 4 days) was 0.09%, the Purity (40° C., 4 days) was 99.72% and the Total impurities (40° C., 4 days) was 0.28%. The Maximum single impurity (40° C., 10 days) was 0.06%, the Purity (40° C., 10 days) was 99.72% and the Total impurities (40° C., 10 days) was 0.28%. The Maximum single impurity (40° C., 20 days) was 0.06%, the Purity (40° C., 20 days) was 99.70% and the Total impurities (40° C., 20 days) was 0.30%. It also gave a Maximum single impurity (60° C., 4 days) of 0.08%, a Purity (60° C., 4 days) of 99.72% and a Total impurities (60° C., 4 days) of 0.28%. For the same compound, the Maximum single impurity (60° C., 10 days) was 0.06%, the Purity (60° C., 10 days) was 99.75% and the Total impurities (60° C., 10 days) was 0.25%. For the same compound, the Maximum single impurity (60° C., 20 days) was 0.06%, the Purity (60° C., 20 days) was 99.70% and the Total impurities (60° C., 20 days) was 0.30%. The Maximum single impurity (75% RH, 4 days) was 0.09%, the Purity (75% RH, 4 days) was 99.72% and the Total impurities (75% RH, 4 days) was 0.28%. For the same compound, the Maximum single impurity (75% RH, 10 days) was 0.06%, the Purity (75% RH, 10 days) was 99.74% and the Total impurities (75% RH, 10 days) was 0.26%. It also gave a Maximum single impurity (75% RH, 20 days) of 0.08%, a Purity (75% RH, 20 days) of 99.68% and a Total impurities (75% RH, 20 days) of 0.32%. It also gave a Maximum single impurity (90% RH, 4 days) of 0.08%, a Purity (90% RH, 4 days) of 99.72% and a Total impurities (90% RH, 4 days) of 0.28%. For the same compound, the Maximum single impurity (90% RH, 10 days) was 0.06%, the Purity (90% RH, 10 days) was 99.76% and the Total impurities (90% RH, 10 days) was 0.24%. It also gave a Maximum single impurity (90% RH, 20 days) of 0.08%, a Purity (90% RH, 20 days) of 99.72% and a Total impurities (90% RH, 20 days) of 0.28%. For the same compound, the Maximum single impurity [1] was 0.09%, the Purity [1] was 99.70% and the Total impurities [1] was 0.30%. The Maximum single impurity [2] was 0.06%, the Purity [2] was 99.75% and the Total impurities [2] was 0.25%. It also gave a Maximum single impurity [3] of 0.08%, a Purity [3] of 99.63% and a Total impurities [3] of 0.37%. The “stability under the influencing factor conditions (in words)” value (light illumination, 40° C., 60° C., 75% RH, 90% RH, 20 days) was “good”.
